The results in this text go back to patent publication US20240270762A1, “PENICILLIN-BINDING PROTEIN INHIBITORS” (priority 2021, published 2024).

Common to all, as to format: cell-based
In one assay the test system is P. aeruginosa CDC-0110. Put plainly: microbe, parasite or virus in culture. The settings on record: Pseudomonas aeruginosa, CDC0110, read-out: Minimum inhibitory concentration, P. aeruginosa CDC-0110.
For the next assay, the system named is E. coli ATCC 25922. Put plainly: microbe, parasite or virus in culture. The settings on record: Escherichia coli, ATCC25922, read-out: MIC E. coli 25922.
Another assay deals with E. coli AG100. The assay can be described thus: microbe, parasite or virus in culture. The settings on record: Escherichia coli, AG100, read-out: MIC E. coli AG100.
A further assay has as its system E. coli 901C. The assay can be described thus: microbe, parasite or virus in culture. The settings on record: Escherichia coli, read-out: MIC E. coli 901C.
Another assay concerns E. coli D22. The assay can be described thus: microbe, parasite or virus in culture. The settings on record: Escherichia coli, D22, read-out: MIC E. coli D22.
In another assay the test system is E. coli AG100A. Put plainly: Broth microdilution MIC in CAMHB. The settings on record: Escherichia coli, read-out: MIC E. coli AG100A.
The subject of another assay is K. pneumoniae 848844. Put plainly: microbe, parasite or virus in culture. The settings on record: Klebsiella pneumoniae, 848844, read-out: MIC K. pneumoniae 848844.
A further assay deals with K. pneumoniae UMM. The assay can be described thus: microbe, parasite or virus in culture. The settings on record: Klebsiella pneumoniae, read-out: MIC K. pneumoniae UMM.
Another assay deals with K. pneumoniae SI-117. The assay can be described thus: microbe, parasite or virus in culture. The settings on record: Klebsiella pneumoniae, SI117, read-out: MIC K. pneumoniae SI-117.
A further assay relates to P. aeruginosa ATCC 27853. The assay can be described thus: microbe, parasite or virus in culture. The settings on record: Pseudomonas aeruginosa, ATCC27853, read-out: MIC P. aeruginosa ATCC 27853.
In the next assay the test system is A. baumannii ATCC 19606. The assay can be described thus: microbe, parasite or virus in culture. The settings on record: Acinetobacter baumannii, ATCC19606, read-out: MIC, A. baumannii ATCC 19606.
A further assay relates to P. aeruginosa ATCC 35151. The assay can be described thus: microbe, parasite or virus in culture. The settings on record: Pseudomonas aeruginosa, ATCC35151, read-out: MIC P. aeruginosa ATCC 35151.
Assay [1] deals with P. aeruginosa (ΔmexAB-oprM). The assay can be described thus: Broth microdilution MIC in CAMHB. A general note: In broth dilution the organism is exposed to a series of concentrations in liquid medium.
The subject of a further assay is B. pseudomallei Bp82. Put plainly: microbe, parasite or virus in culture. The settings on record: Burkholderia pseudomallei, BP82, read-out: Minimum inhibitory concentration, B. pseudomallei Bp82.
Another assay deals with A. baumannii CDC-0083. Put plainly: microbe, parasite or virus in culture. The settings on record: Acinetobacter baumannii, CDC0083, read-out: MIC, A. baumannii CDC-0083.

Values after ≈ are worked out from the molar mass of the structure shown. Where two headings read alike, the source gives them in different places. A value given as a limit tells only on which side of the number the result lay.

For the molecule `O=C(O)c1c(F)ccc2c1OB(O)[C@@H](NC(=O)C(NC(=O)N1CCN(C3CCN(C(=O)Nc4cc(O)c(F)c(F)c4)CC3)C(=O)C1=O)c1cc(F)c(O)c(O)c1Cl)C2` (stereo partly drawn) [Example 488, (3R)-3-(2-(2-chloro-5-fluoro-3,4-dihydroxyphenyl)-2-(4-(1-((3,4-difluoro-5-hydroxyphenyl)carbamoyl)piperidin-4-yl)-2,3-dioxopiperazine-1-carboxamido)acetamido)-7-fluoro-2-hydroxy-3,4-dihydro-2H-benzo[e][1,2]oxaborinine-8-carboxylic acid], the MIC in the assay with P. aeruginosa CDC-0110 was less than 1 µg/mL.

As for `O=C(O)c1cccc2c1OB(O)[C@@H](NC(=O)[C@H](NC(=O)N1CCN(Cc3cc(F)c(O)c(O)c3Cl)C(=O)C1=O)c1ccc(P(=O)(O)O)cc1)C2` [Example 504, (R)-3-((R)-2-(4-(2-chloro-5-fluoro-3,4-dihydroxybenzyl)-2,3-dioxopiperazine-1-carboxamido)-2-(4-phosphonophenyl)acetamido)-2-hydroxy-3,4-dihydro-2H-benzo[e][1,2]oxaborinine-8-carboxylic acid], the MIC in the assay with E. coli ATCC 25922 was less than 1 µg/mL; with E. coli AG100, less than 1 µg/mL; in the assay with E. coli 901C, less than 1 µg/mL; with E. coli D22, 2 to 4 µg/mL (≈ 2.72 to 5.44 µM); with E. coli AG100A it was less than 1 µg/mL; with K. pneumoniae 848844, 2 to 4 µg/mL (≈ 2.72 to 5.44 µM). The MIC in the assay with K. pneumoniae UMM was 2 to 4 µg/mL (≈ 2.72 to 5.44 µM); in the assay with K. pneumoniae SI-117, 2 to 4 µg/mL (≈ 2.72 to 5.44 µM); in the assay on P. aeruginosa ATCC 27853, less than 1 µg/mL; in the assay on A. baumannii ATCC 19606, less than 1 µg/mL; in the assay on P. aeruginosa ATCC 35151, less than 1 µg/mL; in [1] (Pseudomonas aeruginosa, read-out: MIC P. aeruginosa ΔmexAB-oprM), less than 1 µg/mL. Also, in the assay on P. aeruginosa CDC-0110, the MIC is less than 1 µg/mL.

For `O=C(O)c1c(F)ccc2c1OB(O)[C@@H](NC(=O)[C@H](NC(=O)N1CCN(Cc3ccc(O)c(O)c3Cl)C(=O)C1=O)c1cc(F)c(P(=O)(O)O)c(F)c1)C2` [Example 502, (R)-3-((R)-2-(4-(2-chloro-3,4-dihydroxybenzyl)-2,3-dioxopiperazine-1-carboxamido)-2-(3,5-difluoro-4-phosphonophenyl)acetamido)-7-fluoro-2-hydroxy-3,4-dihydro-2H-benzo[e][1,2]oxaborinine-8-carboxylic acid], the MIC in the assay with B. pseudomallei Bp82 and in the assay with P. aeruginosa CDC-0110 was less than 1 µg/mL in each case.

Take `O=C(O)c1c(F)ccc2c1OB(O)[C@@H](NC(=O)[C@H](NC(=O)N1CCN(C3CCN(C(=O)c4ccc(O)c(O)c4Cl)CC3)C1=O)c1ccc(P(=O)(O)O)cc1)C2` [Example 494, (R)-3-((R)-2-(3-(1-(2-chloro-3,4-dihydroxybenzoyl)piperidin-4-yl)-2-oxoimidazolidine-1-carboxamido)-2-(4-phosphonophenyl)acetamido)-7-fluoro-2-hydroxy-3,4-dihydro-2H-benzo[e][1,2]oxaborinine-8-carboxylic acid]: the MIC in the assay on B. pseudomallei Bp82 and with P. aeruginosa CDC-0110 was less than 1 µg/mL throughout.

On to `O=C(O)c1c(F)ccc2c1OB(O)[C@@H](NC(=O)C(NC(=O)N1CCN(C3CCN(C(=O)Nc4c(F)ccc(O)c4F)CC3)C(=O)C1=O)c1cc(F)c(O)c(O)c1Cl)C2` (stereo partly drawn) [Example 487, (3R)-3-(2-(2-chloro-5-fluoro-3,4-dihydroxyphenyl)-2-(4-(1-((2,6-difluoro-3-hydroxyphenyl)carbamoyl)piperidin-4-yl)-2,3-dioxopiperazine-1-carboxamido)acetamido)-7-fluoro-2-hydroxy-3,4-dihydro-2H-benzo[e][1,2]oxaborinine-8-carboxylic acid], for which the MIC with P. aeruginosa CDC-0110 is less than 1 µg/mL.

Regarding `O=C(O)c1c(F)ccc2c1OB(O)[C@@H](NC(=O)[C@H](NC(=O)N1CCN(C3CCN(Cc4cccnc4)CC3)C1=O)c1cc(F)c(O)c(O)c1Cl)C2` [Example 492, (R)-3-((R)-2-(2-chloro-5-fluoro-3,4-dihydroxyphenyl)-2-(2-oxo-3-(1-(pyridin-3-ylmethyl)piperidin-4-yl)imidazolidine-1-carboxamido)acetamido)-7-fluoro-2-hydroxy-3,4-dihydro-2H-benzo[e][1,2]oxaborinine-8-carboxylic acid], in the assay on P. aeruginosa CDC-0110, the MIC was less than 1 µg/mL.

Turning to `O=C(O)c1c(F)ccc2c1OB(O)[C@@H](NC(=O)[C@H](NC(=O)N1CCN(Cc3ccc(O)c(O)c3Cl)C(=O)C1=O)c1ccc(P(=O)(O)O)cc1)C2` (single isomer, unassigned) [Example 160], the MIC is 2 to 4 µg/mL (≈ 2.72 to 5.44 µM) in the assay with E. coli ATCC 25922; less than 1 µg/mL in the assay with E. coli AG100; less than 1 µg/mL with E. coli 901C; 2 to 4 µg/mL (≈ 2.72 to 5.44 µM) in the assay with E. coli D22; less than 1 µg/mL in the assay on E. coli AG100A; 32 to 64 µg/mL (≈ 43.6 to 87.1 µM) in the assay with K. pneumoniae 848844. In addition, the MIC in the assay on K. pneumoniae UMM was 2 to 4 µg/mL (≈ 2.72 to 5.44 µM); with K. pneumoniae SI-117 it was 8 to 16 µg/mL (≈ 10.9 to 21.8 µM); in the assay with P. aeruginosa ATCC 27853, less than 1 µg/mL; in the assay with A. baumannii ATCC 19606 it was less than 1 µg/mL; with P. aeruginosa ATCC 35151, less than 1 µg/mL; in [1] (Pseudomonas aeruginosa; read-out: MIC P. aeruginosa ΔmexAB-oprM), less than 1 µg/mL. The MIC in the assay with A. baumannii CDC-0083 is less than 1 µg/mL.

Take `O=C(O)c1c(F)ccc2c1OB(O)[C@@H](NC(=O)[C@H](NC(=O)N1CCN(C3CCN(C(=O)Nc4cc(F)c(O)c(O)c4Cl)CC3)C1=O)c1ccc(P(=O)(O)O)cc1)C2` (single isomer, unassigned) [Example 500]: the MIC with B. pseudomallei Bp82 and in the assay on P. aeruginosa CDC-0110 was less than 1 µg/mL each time.

Regarding `O=C(NCCN1CCN(C(=O)N[C@@H](C(=O)N[C@H]2Cc3ccc(F)c(C(=O)O)c3OB2O)c2ccc(P(=O)(O)O)cc2)C(=O)C1=O)c1ccc(O)c(O)c1Cl` [Example 503, (R)-3-((R)-2-(4-(2-(2-chloro-3,4-dihydroxybenzamido)ethyl)-2,3-dioxopiperazine-1-carboxamido)-2-(4-phosphonophenyl)acetamido)-7-fluoro-2-hydroxy-3,4-dihydro-2H-benzo[e][1,2]oxaborinine-8-carboxylic acid], the MIC in the assay with B. pseudomallei Bp82 and with P. aeruginosa CDC-0110 was less than 1 µg/mL in each case.

With `O=C(O)c1c(F)ccc2c1OB(O)[C@@H](NC(=O)C(NC(=O)N1CCN(C3CCN(C(=O)Nc4cc(O)c(F)cc4Cl)CC3)C(=O)C1=O)c1cc(F)c(O)c(O)c1Cl)C2` (stereo partly drawn) [Example 490, (3R)-3-(2-(4-(1-((2-chloro-4-fluoro-5-hydroxyphenyl)carbamoyl)piperidin-4-yl)-2,3-dioxopiperazine-1-carboxamido)-2-(2-chloro-5-fluoro-3,4-dihydroxyphenyl)acetamido)-7-fluoro-2-hydroxy-3,4-dihydro-2H-benzo[e][1,2]oxaborinine-8-carboxylic acid], the MIC in the assay on P. aeruginosa CDC-0110 fell in the range of 2 to 4 µg/mL (≈ 2.34 to 4.69 µM).

In the case of `O=C(O)c1c(F)ccc2c1OB(O)[C@@H](NC(=O)[C@H](NC(=O)N1CCN(C3CCN(C(=O)Nc4ccc(O)c(O)c4Cl)CC3)C1=O)c1ccc(P(=O)(O)O)cc1)C2` (single isomer, unassigned) [Example 497], the MIC in the assay with B. pseudomallei Bp82 and in the assay on P. aeruginosa CDC-0110 was less than 1 µg/mL each time.

As for `O=C(O)c1c(F)ccc2c1OB(O)[C@@H](NC(=O)[C@H](NC(=O)N1CCN(C3CCN(C(=O)c4cc(F)c(O)c(O)c4Cl)CC3)C1=O)c1ccc(P(=O)(O)O)cc1)C2` (single isomer, unassigned) [Example 495], the MIC in the assay with B. pseudomallei Bp82 and in the assay on P. aeruginosa CDC-0110 was less than 1 µg/mL throughout.

Consider `O=C(O)c1c(F)ccc2c1OB(O)[C@@H](NC(=O)[C@H](NC(=O)N1CCN(C3CCN(C(=O)Nc4cc(F)c(F)c(O)c4F)CC3)C(=O)C1=O)c1cc(F)c(O)c(O)c1Cl)C2` [Example 491, (R)-3-((R)-2-(2-chloro-5-fluoro-3,4-dihydroxyphenyl)-2-(2,3-dioxo-4-(1-((2,4,5-trifluoro-3-hydroxyphenyl)carbamoyl)piperidin-4-yl)piperazine-1-carboxamido)acetamido)-7-fluoro-2-hydroxy-3,4-dihydro-2H-benzo[e][1,2]oxaborinine-8-carboxylic acid], for which, in the assay on P. aeruginosa CDC-0110, the MIC is less than 1 µg/mL.

Turning to `O=C(O)c1c(F)ccc2c1OB(O)[C@@H](NC(=O)C(NC(=O)N1CCN(C3CCN(C(=O)Nc4ccc(Cl)c(O)c4F)CC3)C(=O)C1=O)c1cc(F)c(O)c(O)c1Cl)C2` (stereo partly drawn) [Example 489, (3R)-3-(2-(4-(1-((4-chloro-2-fluoro-3-hydroxyphenyl)carbamoyl)piperidin-4-yl)-2,3-dioxopiperazine-1-carboxamido)-2-(2-chloro-5-fluoro-3,4-dihydroxyphenyl)acetamido)-7-fluoro-2-hydroxy-3,4-dihydro-2H-benzo[e][1,2]oxaborinine-8-carboxylic acid], in the assay on P. aeruginosa CDC-0110, the MIC lay within 2 to 4 µg/mL (≈ 2.34 to 4.69 µM).

Regarding `O=C(O)c1c(F)ccc2c1OB(O)[C@@H](NC(=O)[C@H](NC(=O)N1CCN(C3CCN(Cc4ccncc4)CC3)C1=O)c1cc(F)c(O)c(O)c1Cl)C2` [Example 493, (R)-3-((R)-2-(2-chloro-5-fluoro-3,4-dihydroxyphenyl)-2-(2-oxo-3-(1-(pyridin-4-ylmethyl)piperidin-4-yl)imidazolidine-1-carboxamido)acetamido)-7-fluoro-2-hydroxy-3,4-dihydro-2H-benzo[e][1,2]oxaborinine-8-carboxylic acid], in the assay with P. aeruginosa CDC-0110, the MIC is less than 1 µg/mL.
